pEC50, pIC50: −log10 of the molar value. Values joined by “and” are separate entries in the source; they are usually repeats but may differ in a detail not shown here. Equal entries are not always repeated. Where two headings read alike, the source gives them in different places.
Tests used:
SARS-CoV-2 3CL protease [1] = target: T1, SARS-CoV-2 3CL protease (Severe acute respiratory syndrome coronavirus 2, UniProt P0DTD1); assay: biochemical
SARS-CoV-2 3CL protease [2] = target: T1, SARS-CoV-2 3CL protease; assay: biochemical; conditions: for kinact/KI: read-out: SARS-CoV-2 3CLpro kinact/KI
SARS-CoV-2 = assay: microbe, parasite or virus in culture; format: cell-based; conditions: for pEC50: Severe acute respiratory syndrome coronavirus 2, 24 h, read-out: SARS-CoV-2 Huh-7ACE2 EC50
[3] = 0.2 µM protease with 50 µM tested compound, replicates
[4] = 200 nM protease, read-out: IC50
[5] = 20 nM protease, read-out: SARS-CoV-2 3CLpro IC50
[6] = Concentration of inhibitor (nM) 0.19382
[7] = Concentration of inhibitor (nM) 0.49485
[8] = Concentration of inhibitor (nM) 0.79588
[9] = Concentration of inhibitor (nM) 1.09691
[10] = Concentration of inhibitor (nM) 1.39794
[11] = Concentration of inhibitor (nM) 1.69897
[12] = Concentration of inhibitor (nM) 2.30103
[13] = Concentration of inhibitor (nM) 2.60206
[14] = Concentration of inhibitor (nM) -0.10721
[15] = Concentration of inhibitor (nM) -0.40824

CSc1ncccc1C#N [NT-1-21]
Normalized SARS-CoV-2 3CL protease activity (SARS-CoV-2 3CL protease [1]; [3]): 1.059 and 1.079 and 0.9766

O=S(=O)(NCc1ccncn1)c1cccnc1 [AZVIII-49C]
Normalized SARS-CoV-2 3CL protease activity (SARS-CoV-2 3CL protease [1]; [3]): 1.015 and 1.0173 and 1.005 | pIC50 (SARS-CoV-2 3CL protease [1]; [4]): < 4.30

O=S(=O)(NCc1ccncn1)c1ccccc1 [AZVIII-49F]
Normalized SARS-CoV-2 3CL protease activity (SARS-CoV-2 3CL protease [1]; [3]): 1.058 and 1.081 and 1.099 | pIC50 (SARS-CoV-2 3CL protease [1]; [4]): < 4.30

O=C(N[C@@H](CC1CC1)C(=O)N[C@@H](C[C@@H]1CCNC1=O)C(O)S(=O)(=O)O)OCc1cccc(Cl)c1 (stereo partly shown) [NK01-57]
pIC50 (SARS-CoV-2 3CL protease [1]; [5]): 7.89 | normalized activity, dose-response curve (Figure S16) (SARS-CoV-2 3CL protease [1]; [6]): 95.6172 and 86.9248 | normalized activity, dose-response curve (Figure S16) (SARS-CoV-2 3CL protease [1]; [7]): 85.9021 and 78.3053 | normalized activity, dose-response curve (Figure S16) (SARS-CoV-2 3CL protease [1]; [8]): 79.0358 and 66.0336 | normalized activity, dose-response curve (Figure S16) (SARS-CoV-2 3CL protease [1]; [9]): 62.3083 and 48.2104 | normalized activity, dose-response curve (Figure S16) (SARS-CoV-2 3CL protease [1]; [10]): 43.3163 and 27.8305 | normalized activity, dose-response curve (Figure S16) (SARS-CoV-2 3CL protease [1]; [11]): 26.2235 and 13.9518 | normalized activity, dose-response curve (Figure S16) (SARS-CoV-2 3CL protease [1]; [12]): 6.939 and 9.715 | normalized activity, dose-response curve (Figure S16) (SARS-CoV-2 3CL protease [1]; [13]): 9.934 and 9.2038 | normalized activity, dose-response curve (Figure S16) (SARS-CoV-2 3CL protease [1]; [14]): 107.889 and 102.703 | normalized activity, dose-response curve (Figure S16) (SARS-CoV-2 3CL protease [1]; [15]): 100 and 101.315 | observed inactivation rate vs compound concentration (Figure S19, replicate values) (SARS-CoV-2 3CL protease [2]): 0.0175 and 0.0065 and 0.0112 and -0.01176 and 0.0254 and -0.00163 and 0.0094 and -0.00166 and -0.05051 and -0.00614 and -0.01353 and -0.00565 and -0.00112 and -0.0108 and -0.00266 and -0.00784 and 0.0038 and -0.0081 and -0.00313 and -0.00276 and 0.0019 | inhibition of SARS-CoV-2 (Figure s17b dose-response, replicate values) (SARS-CoV-2): 104.54 and 74.4176 and 64.8123 and 55.4072 and 79.8077 and 89.5745 and 61.4462 and 18.0183 and 12.437 and -10.4634 and -16.0501 and 3.693 and 24.8584 and -12.4097 and 6.795 and 29.8589 and -3.6952 and 33.5228 and 9.378 and -5.3463 and 36.5619 | pEC50 (SARS-CoV-2): 7.04

O=S(=O)(NCc1cccnc1)c1cccnc1 [AZVIII-44B]
Normalized SARS-CoV-2 3CL protease activity (SARS-CoV-2 3CL protease [1]; [3]): 1.138 and 1.193 and 1.162 | pIC50 (SARS-CoV-2 3CL protease [1]; [4]): < 4.30

COc1ccc(S(=O)(=O)N(CC=O)Cc2ccccc2)cc1 [AZVIII-57G]
Normalized SARS-CoV-2 3CL protease activity (SARS-CoV-2 3CL protease [1]; [3]): 1.117 (2×) and 1.175 (2×) and 1.168 (2×) | pIC50 (SARS-CoV-2 3CL protease [1]; [4]): < 4.30

CCOC(=O)/C=C/[C@H](C[C@@H]1CCNC1=O)NC(=O)[C@H](CC(C)C)NC(=O)OC(C)(C)C [AZVIII-33B]
Normalized SARS-CoV-2 3CL protease activity (SARS-CoV-2 3CL protease [1]; [3]): 1.107 and 0.6918 and 1.159 | pIC50 (SARS-CoV-2 3CL protease [1]; [4]): < 4.30 | activity against SARS-CoV-2 3CL protease (in words) (SARS-CoV-2 3CL protease [1]; compound 4 analogs): inactive

O=C(N[C@@H](CC1CC1)C(=O)N[C@@H](C[C@@H]1CCNC1=O)C(O)S(=O)(=O)O)OCc1ccccc1Cl (stereo partly shown) [NK01-69]
pIC50 (SARS-CoV-2 3CL protease [1]; [5]): 7.62 | normalized activity, dose-response curve (Figure S16) (SARS-CoV-2 3CL protease [1]; [6]): 88.5666 and 86.5188 | normalized activity, dose-response curve (Figure S16) (SARS-CoV-2 3CL protease [1]; [7]): 72.8669 and 79.1809 | normalized activity, dose-response curve (Figure S16) (SARS-CoV-2 3CL protease [1]; [8]): 75 and 74.3174 | normalized activity, dose-response curve (Figure S16) (SARS-CoV-2 3CL protease [1]; [9]): 65.1024 and 60.8362 | normalized activity, dose-response curve (Figure S16) (SARS-CoV-2 3CL protease [1]; [10]): 47.5256 and 39.3345 | normalized activity, dose-response curve (Figure S16) (SARS-CoV-2 3CL protease [1]; [11]): 32.1672 and 24.5734 | normalized activity, dose-response curve (Figure S16) (SARS-CoV-2 3CL protease [1]; [12]): 4.608 and 4.693 | normalized activity, dose-response curve (Figure S16) (SARS-CoV-2 3CL protease [1]; [14]): 106.997 and 100.683 | normalized activity, dose-response curve (Figure S16) (SARS-CoV-2 3CL protease [1]; [15]): 89.5904 and 100 | observed inactivation rate vs compound concentration (Figure S19, replicate values) (SARS-CoV-2 3CL protease [2]): 0.0682 and 0.0478 and 0.0347 and 0.0227 and 0.0119 and 0.047 and -0.00793 and 0.0043 and 0.0066 and 0.0454 and 0.0603 and 0.0339 and 0.0459 and 0.0266 and 0.0345 and 0.0301 and 0.0444 and 0.0675 | kinact/KI (SARS-CoV-2 3CL protease [2]): 70000 M⁻¹ s⁻¹ | inhibition of SARS-CoV-2 (Figure s17b dose-response, replicate values) (SARS-CoV-2): 112.139 and 77.9057 and 91.5513 and 79.8842 and 49.1022 and 70.5924 and 62.1924 and 62.9155 and 78.4113 and -0.7628 and 38.0643 and 11.5151 and -8.426 and 17.4096 and 4.8166 and -9.308 and 10.7894 and 11.3275 and 55.1502 and 29.5769 and 12.5491 | pEC50 (SARS-CoV-2): 7.46

CS(=O)(=O)c1ncccc1C#N [NT-1-24]
Normalized SARS-CoV-2 3CL protease activity (SARS-CoV-2 3CL protease [1]; [3]): 0.9913 and 0.611 and 0.8892

CS(=O)(=O)c1nc(C(F)(F)F)ccc1C#N [NT-1-32]
Normalized SARS-CoV-2 3CL protease activity (SARS-CoV-2 3CL protease [1]): 0.9191 and 0.9056 and 0.7525

CC(C)C[C@H](NC(=O)OCc1cc(F)c(F)cc1F)C(=O)N[C@@H](C[C@@H]1CCNC1=O)C(O)S(=O)(=O)O (stereo partly shown) [NK01-48]
pIC50 (SARS-CoV-2 3CL protease [1]; [5]): 7.04 | normalized activity, dose-response curve (Figure S16) (SARS-CoV-2 3CL protease [1]; [6]): 99.5986 and 99.2546 | normalized activity, dose-response curve (Figure S16) (SARS-CoV-2 3CL protease [1]; [7]): 84.289 and 78.0963 | normalized activity, dose-response curve (Figure S16) (SARS-CoV-2 3CL protease [1]; [8]): 92.7179 and 89.3922 | normalized activity, dose-response curve (Figure S16) (SARS-CoV-2 3CL protease [1]; [9]): 76.6628 and 70.7569 | normalized activity, dose-response curve (Figure S16) (SARS-CoV-2 3CL protease [1]; [10]): 79.2431 and 69.9541 | normalized activity, dose-response curve (Figure S16) (SARS-CoV-2 3CL protease [1]; [11]): 62.156 and 55.5619 | normalized activity, dose-response curve (Figure S16) (SARS-CoV-2 3CL protease [1]; Concentration of inhibitor (nM) 2): 48.3945 and 50.2294 | normalized activity, dose-response curve (Figure S16) (SARS-CoV-2 3CL protease [1]; [12]): 33.7729 and 21.5023 | normalized activity, dose-response curve (Figure S16) (SARS-CoV-2 3CL protease [1]; [13]): 18.3486 and 12.328 | normalized activity, dose-response curve (Figure S16) (SARS-CoV-2 3CL protease [1]; [14]): 97.1904 and 78.0963 | normalized activity, dose-response curve (Figure S16) (SARS-CoV-2 3CL protease [1]; [15]): 97.1904 and 100 | observed inactivation rate vs compound concentration (Figure S19, replicate values) (SARS-CoV-2 3CL protease [2]): 0.0181 and 0.0442 and 0.0252 and 0.0284 and 0.021 and 0.0128 and 0.0148 and 0.0158 and 0.0136 and 0.0037 and 0.0168 and 0.02 and 0.0021 and 0.0084 and 0.0011 | kinact/KI (SARS-CoV-2 3CL protease [2]): 5000 M⁻¹ s⁻¹ | inhibition of SARS-CoV-2 (Figure s17b dose-response, replicate values) (SARS-CoV-2): 125.494 and 126.964 and 86.3185 and 118.605 and 134.4 and 122.016 and 84.6265 and 61.89 and 119.128 and 54.4703 and 35.4275 and 15.416 and 32.4697 and 30.0193 and 47.7694 and 0.4554 and -12.5084 and -5.078 and 34.0338 and 10.0006 and 6.443 | pEC50 (SARS-CoV-2): 7.82

— paper PMC8989888, “Development of optimized drug-like small molecule inhibitors of the SARS-CoV-2 3CL protease for treatment of COVID-19” (Nature Communications, 2022)
